Test results published in US5932551A, “Substituted N-carboxyalkylpeptidyl derivatives as antidegenerative active agents” (Merck & Co., Inc., priority 1997, dated 1999).

Key:
Format in all cases: biochemical
collagenase = target: T1, collagenase (Homo sapiens, UniProt P03956); test: Inhibition of collagenase cleavage of thioester peptide Ac-Pro-Leu-Gly-S-Leu-Leu-Gly-OC2H5; conditions: read-out: Inhibition of Collagenase pH = 6.5 (IC50)
T1 sequence (P03956 100-469): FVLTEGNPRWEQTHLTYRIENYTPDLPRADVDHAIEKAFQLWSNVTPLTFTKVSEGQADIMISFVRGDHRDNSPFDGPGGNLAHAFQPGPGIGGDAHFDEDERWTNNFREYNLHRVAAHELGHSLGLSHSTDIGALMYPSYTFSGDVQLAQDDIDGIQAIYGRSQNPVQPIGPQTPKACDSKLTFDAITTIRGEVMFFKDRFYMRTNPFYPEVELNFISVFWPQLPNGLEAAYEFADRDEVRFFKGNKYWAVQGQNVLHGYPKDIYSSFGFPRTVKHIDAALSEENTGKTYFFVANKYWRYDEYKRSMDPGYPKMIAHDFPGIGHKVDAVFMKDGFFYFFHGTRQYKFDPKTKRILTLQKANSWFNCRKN
Description: (§1) The peptide portion is herein designated SEQ ID No: 2:.

[1] = target: T2, 72 kD Galatinase (gelatinase) (Homo sapiens, UniProt P08253); test: Inhibition of gelatinase-mediated cleavage of fluorogenic substrate Dnp-Pro-Leu-Gly-Leu-Trp-Ala-D-ArgNH2; conditions: pH = 7.5
T2 sequence (P08253 110-660): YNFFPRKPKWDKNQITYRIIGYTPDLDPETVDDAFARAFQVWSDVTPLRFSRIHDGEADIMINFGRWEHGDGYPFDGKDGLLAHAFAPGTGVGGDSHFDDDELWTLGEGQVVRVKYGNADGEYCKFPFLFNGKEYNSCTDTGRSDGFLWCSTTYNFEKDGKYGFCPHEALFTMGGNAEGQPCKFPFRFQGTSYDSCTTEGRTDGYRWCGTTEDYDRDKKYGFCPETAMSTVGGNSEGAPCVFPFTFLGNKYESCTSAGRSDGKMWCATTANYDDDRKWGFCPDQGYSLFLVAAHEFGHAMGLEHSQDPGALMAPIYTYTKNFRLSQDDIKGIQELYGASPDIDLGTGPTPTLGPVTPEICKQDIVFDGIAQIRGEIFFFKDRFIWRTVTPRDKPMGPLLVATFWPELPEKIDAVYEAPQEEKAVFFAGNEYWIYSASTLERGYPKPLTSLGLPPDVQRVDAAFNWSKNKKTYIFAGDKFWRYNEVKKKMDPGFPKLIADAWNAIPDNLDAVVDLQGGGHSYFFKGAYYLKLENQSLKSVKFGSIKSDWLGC
Description: as §1

stromelysin = stromelysin (Homo sapiens, UniProt P08254); test: Inhibition of stromelysin-mediated hydrolysis of substance P (HPLC-based assay); conditions: pH = 7.5
stromelysin, sequence (P08254 100-477): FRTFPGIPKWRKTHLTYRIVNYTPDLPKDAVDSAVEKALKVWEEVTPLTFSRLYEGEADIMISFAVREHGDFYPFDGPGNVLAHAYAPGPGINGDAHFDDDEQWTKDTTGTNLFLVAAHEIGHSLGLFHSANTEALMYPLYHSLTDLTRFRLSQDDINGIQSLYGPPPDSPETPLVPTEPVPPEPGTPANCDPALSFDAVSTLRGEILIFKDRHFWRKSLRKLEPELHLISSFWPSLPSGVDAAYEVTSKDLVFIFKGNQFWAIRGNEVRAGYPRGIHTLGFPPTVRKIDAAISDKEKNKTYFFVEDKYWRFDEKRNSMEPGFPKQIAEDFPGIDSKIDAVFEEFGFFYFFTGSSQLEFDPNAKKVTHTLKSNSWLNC

Row | IC50 (collagenase) | Ki [1] | IC50 (stromelysin) | SMILES
1 | 60 nM | 930 nM |  | CC(C)C[C@H](NC(=O)[C@H](CCc1ccccc1)N[C@H](C)C(=O)O)C(=O)Nc1ccccc1 [5a, N-[1(R)-Carboxy-ethyl]-α-(S)-(2-phenyl-ethyl)glycine-(L)-leucine, N-phenylamide]
2 | 250 nM | 86 nM | 200 nM | CC(C)C[C@H](NC(=O)[C@H](CCc1ccccc1)N[C@H](CCCCN1C(=O)c2ccccc2C1=O)C(=O)O)C(=O)Nc1ccccc1 [5d]
